# Tests used:
# Experiment in all cases: competitive isoTOP-ABPP
# Format in all cases: binding
# [1] = molecular target: T1, IFIT3 Interferon-induced protein with tetratricopeptide (Homo sapiens, UniProt O14879); settings: for R value (DMSO/fragment) for probe 1 labeling: O14879_K148; for R value (DMSO/fragment) for probe 1 labeling / isoTOP-ABPP reactivity ratio at lysine O14879_K148 / isoTOP-ABPP ratio (R) at liganded lysine O14879_K148: 50 uM, in vitro; for R value (DMSO/fragment) for probe 1 labeling / isoTOP-ABPP reactivity ratio at lysine O14879_K148: 231 sol; for isoTOP-ABPP ratio (R) at liganded lysine O14879_K148: sol, 231
# T1 construct: isoTOP-ABPP experiments performed in cell lysates (in vitro); endogenous in cells; host or cells: MDA-MB-231 soluble lysate
# T1 sequence (O14879 1-490): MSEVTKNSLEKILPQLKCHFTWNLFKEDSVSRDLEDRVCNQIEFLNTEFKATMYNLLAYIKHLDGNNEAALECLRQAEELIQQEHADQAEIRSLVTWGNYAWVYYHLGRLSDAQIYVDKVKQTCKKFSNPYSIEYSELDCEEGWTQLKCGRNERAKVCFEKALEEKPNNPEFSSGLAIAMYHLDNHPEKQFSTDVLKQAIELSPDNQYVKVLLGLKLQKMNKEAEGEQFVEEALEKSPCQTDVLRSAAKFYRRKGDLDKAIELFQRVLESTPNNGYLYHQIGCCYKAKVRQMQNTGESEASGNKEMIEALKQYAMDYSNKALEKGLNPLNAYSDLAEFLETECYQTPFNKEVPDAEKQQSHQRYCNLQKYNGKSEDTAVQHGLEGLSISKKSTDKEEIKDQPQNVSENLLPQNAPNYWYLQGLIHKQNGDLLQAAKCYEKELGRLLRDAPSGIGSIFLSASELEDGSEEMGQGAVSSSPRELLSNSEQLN
# Method in brief: (§1)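 Probe: STP-alkyne, 0.1 mM, 1 h RT, after fragment pretreatment of lysate (esters 50 μM; guanidinylators 100 μM). Tags: light = compound, heavy = DMSO, via CuAAC. Replicates averaged if SD <60% of mean; otherwise lowest ratio used when any R <4.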
# [2] = molecular target: T2, GABARAPL2 Gamma-aminobutyric acid receptor-associated protei (Homo sapiens, UniProt P60520); settings: for R value (DMSO/fragment) for probe 1 labeling: P60520_K46; for R value (DMSO/fragment) for probe 1 labeling / isoTOP-ABPP reactivity ratio at lysine P60520_K46 / isoTOP-ABPP ratio (R) at liganded lysine P60520_K46: 50 uM, in vitro; for R value (DMSO/fragment) for probe 1 labeling / isoTOP-ABPP reactivity ratio at lysine P60520_K46: 231 sol; for isoTOP-ABPP ratio (R) at liganded lysine P60520_K46: sol, 231
# T2 construct: isoTOP-ABPP experiments performed in cell lysates (in vitro); endogenous in cells; host or cells: soluble proteome of human cancer cell lines (MDA-MB-231, Ramos, Jurkat)
# T2 sequence (P60520 1-116 limits assumed): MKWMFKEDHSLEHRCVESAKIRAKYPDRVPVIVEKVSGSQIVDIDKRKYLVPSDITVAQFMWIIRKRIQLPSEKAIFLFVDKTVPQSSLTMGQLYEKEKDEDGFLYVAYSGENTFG
# Method in brief: as §1
# [3] = molecular target: T3, ARL6IP1 ADP-ribosylation factor-like protein 6-interacting (Homo sapiens, UniProt Q15041); settings: for R value (DMSO/fragment) for probe 1 labeling: Q15041_K188; for R value (DMSO/fragment) for probe 1 labeling / isoTOP-ABPP reactivity ratio at lysine Q15041_K188 / isoTOP-ABPP ratio (R) at liganded lysine Q15041_K188: 50 uM, in vitro; for R value (DMSO/fragment) for probe 1 labeling / isoTOP-ABPP reactivity ratio at lysine Q15041_K188: 231 sol; for isoTOP-ABPP ratio (R) at liganded lysine Q15041_K188: sol, 231
# T3 construct: isoTOP-ABPP experiments performed in cell lysates (in vitro); endogenous in cells; host or cells: soluble proteome of human cancer cell lines (MDA-MB-231; Ramos and Jurkat also prepared)
# T3 sequence (Q15041 whole entry, the tested form may be a part): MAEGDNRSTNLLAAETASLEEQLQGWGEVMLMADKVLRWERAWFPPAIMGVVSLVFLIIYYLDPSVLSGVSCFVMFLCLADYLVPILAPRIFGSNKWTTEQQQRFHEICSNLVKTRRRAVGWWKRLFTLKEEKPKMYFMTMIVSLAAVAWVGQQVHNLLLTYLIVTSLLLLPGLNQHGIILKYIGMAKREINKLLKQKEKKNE
# Method in brief: as §1
smiles,measurement,setting,value
"O=C(CCc1cn(-c2ccccc2)nc1-c1ccccc1)Oc1c(F)c(F)c(F)c(F)c1F [fragment 19, Pentafluorophenyl 3-(1,3-diphenyl-1H-pyrazol-4-yl)propanoate]",R value (DMSO/fragment) for probe 1 labeling,[1],0.9
same,R value (DMSO/fragment) for probe 1 labeling,[2],1.2
"O=C(Oc1c(F)c(F)c(F)c(F)c1F)C(c1ccccc1)c1ccccc1 [fragment 20, Pentafluorophenyl 2,2-diphenylacetate]",R value (DMSO/fragment) for probe 1 labeling,[3],1.8
same,R value (DMSO/fragment) for probe 1 labeling,[1],0.7
same,R value (DMSO/fragment) for probe 1 labeling,[2],0.9
"O=C(Oc1c(F)c(F)c(F)c(F)c1F)c1cc(C(F)(F)F)cc(C(F)(F)F)c1 [fragment 21, Pentafluorophenyl 3,5-bis(trifluoromethyl)benzoate]",R value (DMSO/fragment) for probe 1 labeling,[3],3.9
same,R value (DMSO/fragment) for probe 1 labeling,[1],1.4
same,R value (DMSO/fragment) for probe 1 labeling,[2],0.8
"Cn1cc(CC(=O)Oc2c(F)c(F)c(F)c(F)c2F)c2ccccc21 [fragment 22, Pentafluorophenyl 2-(1-methyl-1H-indol-3-yl)acetate]",R value (DMSO/fragment) for probe 1 labeling,[2],0.8
"O=C(Oc1c(F)c(F)c(F)c(F)c1F)C1CCN(C(=O)OCc2ccccc2)CC1 [fragment 24, 1-Benzyl 4-(pentafluorophenyl) piperidine-1,4-dicarboxylate]",isoTOP-ABPP reactivity ratio at lysine Q15041_K188,[3],2.4
same,isoTOP-ABPP reactivity ratio at lysine O14879_K148,[1],1.3
"O=C(Oc1c(F)c(F)c(F)c(F)c1F)c1ccc2ccccc2n1 [fragment 25, Pentafluorophenyl quinoline-2-carboxylate]",isoTOP-ABPP reactivity ratio at lysine O14879_K148,[1],1.9
same,isoTOP-ABPP reactivity ratio at lysine P60520_K46,[2],1.2
"O=C(CCc1coc2cc(F)ccc2c1=O)Oc1c(F)c(F)c(F)c(F)c1F [fragment 26, Pentafluorophenyl 3-(7-fluoro-4-oxo-4H-chromen-3-yl)propanoate]",isoTOP-ABPP reactivity ratio at lysine O14879_K148,[1],1.4
"O=C(CN1C(=O)c2ccccc2C1=O)Oc1c(F)c(F)c(F)c(F)c1F [fragment 27, Pentafluorophenyl 2-(1,3-dioxoisoindolin-2-yl)acetate]",isoTOP-ABPP reactivity ratio at lysine O14879_K148,[1],0.9
"CCn1cc(C(=O)Oc2c(F)c(F)c(F)c(F)c2F)c(=O)c2ccc(C)nc21 [fragment 28, Pentafluorophenyl 1-ethyl-7-methyl-4-oxo-1,4-dihydro-1,8-naphthyridine-3-carboxylate]",isoTOP-ABPP reactivity ratio at lysine O14879_K148,[1],1.0
"O=C(CCc1cn(-c2ccccc2)nc1-c1ccccc1)Oc1ccc([N+](=O)[O-])cc1[N+](=O)[O-] [fragment 29, 2,4-Dinitrophenyl 3-(1,3-diphenyl-1H-pyrazol-4-yl)propanoate]",isoTOP-ABPP reactivity ratio at lysine O14879_K148,[1],4.1
same,isoTOP-ABPP reactivity ratio at lysine P60520_K46,[2],0.9
"O=C(Oc1ccc([N+](=O)[O-])cc1[N+](=O)[O-])c1cc(C(F)(F)F)cc(C(F)(F)F)c1 [fragment 31, 2,4-Dinitrophenyl 3,5-bis(trifluoromethyl)benzoate]",isoTOP-ABPP reactivity ratio at lysine P60520_K46,[2],1.2
"Cn1cc(CC(=O)Oc2ccc([N+](=O)[O-])cc2[N+](=O)[O-])c2ccccc21 [fragment 32, 2,4-Dinitrophenyl 2-(1-methyl-1H-indol-3-yl)acetate]",isoTOP-ABPP reactivity ratio at lysine Q15041_K188,[3],5.9
same,isoTOP-ABPP reactivity ratio at lysine P60520_K46,[2],1.1
"COc1cc(CCC(=O)Oc2ccc([N+](=O)[O-])cc2[N+](=O)[O-])cc(OC)c1OC [fragment 33, 2,4-Dinitrophenyl 3-(3,4,5-trimethoxyphenyl)propanoate]",isoTOP-ABPP reactivity ratio at lysine Q15041_K188,[3],1.3
same,isoTOP-ABPP reactivity ratio at lysine P60520_K46,[2],1.2
"O=C(Oc1ccc([N+](=O)[O-])cc1[N+](=O)[O-])c1ccc2ccccc2n1 [fragment 35, 2,4-Dinitrophenyl quinoline-2-carboxylate]",isoTOP-ABPP ratio (R) at liganded lysine Q15041_K188,[3],1.4
same,isoTOP-ABPP ratio (R) at liganded lysine P60520_K46,[2],0.9
"O=C(CCc1coc2cc(F)ccc2c1=O)Oc1ccc([N+](=O)[O-])cc1[N+](=O)[O-] [fragment 36, 2,4-Dinitrophenyl 3-(7-fluoro-4-oxo-4H-chromen-3-yl)propanoate]",isoTOP-ABPP ratio (R) at liganded lysine Q15041_K188,[3],1.6
same,isoTOP-ABPP ratio (R) at liganded lysine O14879_K148,[1],3.4
"O=C(Oc1ccc([N+](=O)[O-])cc1[N+](=O)[O-])c1ccc(-c2ccccc2)cc1 [fragment 37, 2,4-Dinitrophenyl [1,1′-biphenyl]-4-carboxylate]",isoTOP-ABPP ratio (R) at liganded lysine Q15041_K188,[3],1.8
same,isoTOP-ABPP ratio (R) at liganded lysine P60520_K46,[2],0.8
"O=C(CC12CC3CC(CC(C3)C1)C2)Oc1ccc([N+](=O)[O-])cc1[N+](=O)[O-] [fragment 38, 2,4-Dinitrophenyl 2-(adamantan-1-yl)acetate]",isoTOP-ABPP ratio (R) at liganded lysine P60520_K46,[2],1.0
"O=C(Oc1ccc([N+](=O)[O-])cc1[N+](=O)[O-])c1ccc(Oc2ccccc2)cc1 [fragment 39, 2,4-Dinitrophenyl 4-phenoxybenzoate]",isoTOP-ABPP ratio (R) at liganded lysine Q15041_K188,[3],1.7
same,isoTOP-ABPP ratio (R) at liganded lysine O14879_K148,[1],1.4
same,isoTOP-ABPP ratio (R) at liganded lysine P60520_K46,[2],0.8
"CC(C)(C)OC(=O)NCCCC(=O)Oc1ccc([N+](=O)[O-])cc1[N+](=O)[O-] [fragment 41, 2,4-Dinitrophenyl 4-((tert-butoxycarbonyl)amino)butanoate]",isoTOP-ABPP ratio (R) at liganded lysine Q15041_K188,[3],1.3
same,isoTOP-ABPP ratio (R) at liganded lysine P60520_K46,[2],1.0
"O=C(Oc1ccc([N+](=O)[O-])cc1[N+](=O)[O-])C(c1ccccc1)(c1ccccc1)c1ccccc1 [fragment 42, 2,4-Dinitrophenyl 2,2,2-triphenylacetate]",isoTOP-ABPP ratio (R) at liganded lysine Q15041_K188,[3],1.1
same,isoTOP-ABPP ratio (R) at liganded lysine O14879_K148,[1],0.8
same,isoTOP-ABPP ratio (R) at liganded lysine P60520_K46,[2],0.9
"CC(=O)Oc1ccc([N+](=O)[O-])cc1[N+](=O)[O-] [fragment 43, 2,4-Dinitrophenyl acetate]",isoTOP-ABPP ratio (R) at liganded lysine Q15041_K188,[3],1.4
"N#Cc1ccc(C(=O)Oc2ccc([N+](=O)[O-])cc2[N+](=O)[O-])cc1 [fragment 44, 2,4-Dinitrophenyl 4-cyanobenzoate]","isoTOP-ABPP ratio, lysine Q15041_K188",[3]; 50 uM_231_sol_in vitro,1.1
same,"isoTOP-ABPP ratio, lysine O14879_K148",[1]; 50 uM_231_sol_in vitro,2.2
same,"isoTOP-ABPP ratio, lysine P60520_K46",[2]; 50 uM_231_sol_in vitro,0.9
"O=C(CCc1ccc2c(c1)OCO2)Oc1ccc([N+](=O)[O-])cc1[N+](=O)[O-] [fragment 45, 2,4-Dinitrophenyl 3-(benzo[d][1,3]dioxol-5-yl)propanoate]","isoTOP-ABPP ratio, lysine Q15041_K188",[3]; 50 uM_231_sol_in vitro,2.2
same,"isoTOP-ABPP ratio, lysine O14879_K148",[1]; 50 uM_231_sol_in vitro,2.7
same,"isoTOP-ABPP ratio, lysine P60520_K46",[2]; 50 uM_231_sol_in vitro,1.0
"O=C(ON1C(=O)CCC1=O)c1cc(C(F)(F)F)cc(C(F)(F)F)c1 [fragment 46, 3,5-Bis(trifluoromethyl)benzoic acid NHS ester]","isoTOP-ABPP ratio, lysine Q15041_K188",[3]; 50 uM_231_sol_in vitro,1.2
same,"isoTOP-ABPP ratio, lysine O14879_K148",[1]; 50 uM_231_sol_in vitro,2.2
"O=C(Oc1c(F)c(F)c(C(F)(F)F)c(F)c1F)c1cc(C(F)(F)F)cc(C(F)(F)F)c1 [fragment 47, 2,3,5,6-Tetrafluoro-4-(trifluoromethyl)phenyl 3,5-bis(trifluoromethyl)benzoate]","isoTOP-ABPP ratio, lysine Q15041_K188",[3]; 50 uM_231_sol_in vitro,3.5
same,"isoTOP-ABPP ratio, lysine P60520_K46",[2]; 50 uM_231_sol_in vitro,1.0
"O=C(Oc1c(F)c(F)cc(F)c1F)c1cc(C(F)(F)F)cc(C(F)(F)F)c1 [fragment 48, 2,3,5,6-Tetrafluorophenyl 3,5-bis(trifluoromethyl)benzoate]","isoTOP-ABPP ratio, lysine Q15041_K188",[3]; 50 uM_231_sol_in vitro,3.5
same,"isoTOP-ABPP ratio, lysine O14879_K148",[1]; 50 uM_231_sol_in vitro,0.7
same,"isoTOP-ABPP ratio, lysine P60520_K46",[2]; 50 uM_231_sol_in vitro,0.9
"COC(=O)NC(=NC(=O)OCC1c2ccccc2-c2ccccc21)n1cccn1 [fragment 49, N-Methoxycarbonyl-N′-9-fluorenylmethoxycarbonyl-pyrazole-1-carboxamidine]","isoTOP-ABPP ratio, lysine P60520_K46",[2]; 100 uM_231_sol_in vitro,1.9
"CC(C)(C)OC(=O)N=C(NC(=O)OC(C)(C)C)n1cccn1 [fragment 50, reference compound]","isoTOP-ABPP ratio, lysine Q15041_K188",[3]; 100 uM_231_sol_in vitro,3.4
same,"isoTOP-ABPP ratio, lysine O14879_K148",[1]; 100 uM_231_sol_in vitro,1.4
same,"isoTOP-ABPP ratio, lysine P60520_K46",[2]; 100 uM_231_sol_in vitro,20.0
"NC(=O)c1cc(C(F)(F)F)cc(C(F)(F)F)c1 [fragment 51, reference compound]","isoTOP-ABPP ratio, lysine P60520_K46",[2]; 50 uM_231_sol_in vitro,1.0
